Assay results as given in article PMC10537410 (Pharmaceutics, 2023).

Assay: In vitro dissolution in simulated lung fluid
Type: physicochemical
Conditions: simulated lung fluid with 0.01% w/v DPPC, ca. 2 mg CsA in 100 mL, 100 r/min, 37 °C, HPLC; n = 3
Method: In vitro dissolution was carried out in simulated lung fluid. Simulated lung fluid was prepared with some modifications according to the literature. The composition of simulated lung fluid included NaCl (6.40 g/L), CaCl2·2H2O (0.26 g/L), Na2HPO4 (0.15 g/L), NaHCO3 (2.70 g/L), NH4Cl (0.12 g/L), MgCl2 (0.10 g/L), Na2SO4·10H2O (0.18 g/L), Na3citrate·2H2O (0.16 g/L), Glycine (0.19 g/L), and dipalmitoylphosphatidylcholine (0.01% w/v). Raw CsA and formulation (ca. 2 mg CsA) were dispersed in 100 mL dissolution medium and placed in a magnetic stirrer (MR Hei-Tec, Heidolph, Germany) maintained at 100 r/min and 37 °C. At predetermined intervals, suspensions (0.5 mL) were withdrawn and centrifuged. The supernatants were diluted with 0.5 mL of ethanol and determined by the HPLC method, as described in Section 2.3.

Release amount within 24 h: ≤ 24%
Substance: Cyclosporine A [raw CsA]
